Measured values: patent US20210253651A1, “METHOD FOR PRODUCING ORGANIC COMPOUND-ENCAPSULATING FERRITIN” (Ajinomoto Co., Inc., priority 2018, published 2021)
Like-named read-outs stand apart in the source and are kept apart here.

Columns and labels:
[1] = cited from earlier work
[2] = cited from earlier work; remark: listed apart in the source
FTH ferritin [3] = molecular target: T1, FTH ferritin (Homo sapiens, UniProt P02794); assay: one-step process incorporation of small molecule agents into FTH ferritin; type: physicochemical; conditions: for Incorporation efficiency (wt %) / Number of agent incorporated: 60 min; for Optimal pH in reaction: pH of buffer giving the largest amount of incorporation within ferritin
T1 construct: made in house; host or cells: Escherichia coli BL21 (DE3), plasmid pET20-FTH
Procedure: All of the reactions were performed in 0.1 mL volume. […] The absorbances were measured using spectrophotometer (DU-800, Beckman Coulter Inc.) for these solutions, and the concentration of contained protein was determined using the protein assay CBB solution (Nacalai Tesque, Inc.) as well as bovine albumin as a standard. Absorbances at 280 nm and 480 nm were measured for Rhodamine B and Congo Red. […] Then, after the absorbances were calibrated based on the absorbances that were derived from the proteins and presumed by the amount of contained protein quantified using the protein assay CBB solution, the concentrations of small molecule agents were determined based on the calibration curves obtained by the absorbances of the molecules. […] As a result, the one-step process enabled incorporating also the small molecule agents with different physical properties such as molecular weight and pKa simply and easily.

FTH ferritin [4] = molecular target: T1, FTH ferritin; assay: disassembly-reassembly process incorporation of uranine into FTH ferritin; type: physicochemical
Procedure: As a control, uranine was incorporated into ferritin in the disassembly-reassembly process. […] Then, 10 μL of 1 M Tris-HCl buffer (pH 9.0) was added for neutralization, and the resulting solution was left to stand for 15 minutes at room temperature. After the standing, 0.5 mL of water was added. After the resulting solution was centrifuged (at 15,000 rpm for one minute), the supernatant was injected into the desalting column PD-10 (Sephadex G-25 filled product, GE Healthcare Inc.) equilibrated with 10 mM Tris-HCl buffer (pH 8) to separate the protein from a reagent that was not encapsulated. Whole amount (3.5 mL) of the resulting solution was concentrated to 0.1 mL by centrifugal ultrafiltration using Vivaspin 20-100K (GE Healthcare Inc.).

FTH ferritin [5] = molecular target: T1, FTH ferritin; assay: one-step process incorporation of uranine into FTH ferritin; type: physicochemical
Procedure: All reactions were carried out in 1 mL volume. After the standing and centrifuging (at 15,000 rpm for one minute), the supernatant was injected into the desalting column PD-10 (Sephadex G-25 filled product, GE Healthcare Inc.) equilibrated with 10 mM Tris-HCl buffer (pH 8) to separate the protein from a reagent that was not encapsulated, for obtaining 3.5 mL of sample solution. The absorbance at 430 nm was measured using spectrophotometer (DU-800, Beckman Coulter Inc.) for the resulting solution in order to determine the concentration of uranine. The concentration of contained protein was determined using the protein assay CBB solution (Nacalai Tesque, Inc.) as well as bovine albumin as a standard.

[6] = pKa of the organic compound; type: physicochemical; conditions: average of plural pKa values
Source text: The pKa of the organic compound can be determined by a neutralization titration method (Kagaku Binran Kiso-hen I and II (Handbook of Chemistry, basic I and II) (Ver. 4) edited by The Chemical Society of Japan, Maruzen Publishing, 1993). […] When the organic compound has a single pKa value, the value is employed as the pKa of the organic compound.

T1 sequence (P02794 whole entry): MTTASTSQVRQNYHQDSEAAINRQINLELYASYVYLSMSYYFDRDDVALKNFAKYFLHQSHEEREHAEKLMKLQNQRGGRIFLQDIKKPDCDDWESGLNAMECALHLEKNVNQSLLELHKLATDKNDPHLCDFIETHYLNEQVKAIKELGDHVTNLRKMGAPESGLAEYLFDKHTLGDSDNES

Compound: Nc1cc(N2CCCCC2)nc(N)[n+]1[O-] [Minoxidil]
- logP [1]: 1.24
- pKa ([2]; single or first pKa value): 4.61
- Incorporation efficiency (wt %) (FTH ferritin [3]; pH 4, 40° C.): 0.3 wt %
- Number of agent incorporated (FTH ferritin [3]; pH 4, 40° C.): 8.3
- Incorporation efficiency (wt %) (FTH ferritin [3]; pH 6, 20° C.): 2.6 wt %
- Number of agent incorporated (FTH ferritin [3]; pH 6, 20° C.): 65.6
- Incorporation efficiency (wt %) (FTH ferritin [3]; pH 6, 40° C.): 0.8 wt %
- Number of agent incorporated (FTH ferritin [3]; pH 6, 40° C.): 20.0
- Incorporation efficiency (wt %) (FTH ferritin [3]; pH 6, 60° C.): 0.5 wt %
- Number of agent incorporated (FTH ferritin [3]; pH 6, 60° C.): 12.0
- Incorporation efficiency (wt %) (FTH ferritin [3]; pH 8, 40° C.): 0.5 wt %
- Number of agent incorporated (FTH ferritin [3]; pH 8, 40° C.): 12.0
- Incorporation efficiency (wt %) (FTH ferritin [3]; pH 10, 40° C.): 0.2 wt %
- Number of agent incorporated (FTH ferritin [3]; pH 10, 40° C.): 4.3
- Optimal pH in reaction (FTH ferritin [3]): 6

Compound: Rhodamine B
- logP [1]: 1.78
- pKa ([2]; single or first pKa value): 3.1
- Incorporation efficiency (wt %) (FTH ferritin [3]; pH 4, 60° C.): 0.4 wt %
- Number of agent incorporated (FTH ferritin [3]; pH 4, 60° C.): 4.3
- Incorporation efficiency (wt %) (FTH ferritin [3]; pH 5, 60° C.): 1.5 wt %
- Number of agent incorporated (FTH ferritin [3]; pH 5, 60° C.): 16.7
- Incorporation efficiency (wt %) (FTH ferritin [3]; pH 6, 60° C.): 0.3 wt %
- Number of agent incorporated (FTH ferritin [3]; pH 6, 60° C.): 3.5
- Incorporation efficiency (wt %) (FTH ferritin [3]; pH 7, 60° C.): 0.2 wt %
- Number of agent incorporated (FTH ferritin [3]; pH 7, 60° C.): 2.3
- Incorporation efficiency (wt %) (FTH ferritin [3]; pH 8, 20° C.): 1.0 wt %
- Number of agent incorporated (FTH ferritin [3]; pH 8, 20° C.): 11.1
- Incorporation efficiency (wt %) (FTH ferritin [3]; pH 8, 60° C.): 0.2 wt %
- Number of agent incorporated (FTH ferritin [3]; pH 8, 60° C.): 1.8
- Incorporation efficiency (wt %) (FTH ferritin [3]; pH 9, 30° C.): 0.7 wt %
- Number of agent incorporated (FTH ferritin [3]; pH 9, 30° C.): 7.6
- Incorporation efficiency (wt %) (FTH ferritin [3]; pH 9, 40° C.): 0.4 wt %
- Number of agent incorporated (FTH ferritin [3]; pH 9, 40° C.): 3.9
- Incorporation efficiency (wt %) (FTH ferritin [3]; pH 9, 50° C.): 0.2 wt %
- Number of agent incorporated (FTH ferritin [3]; pH 9, 50° C.): 2.6
- Incorporation efficiency (wt %) (FTH ferritin [3]; pH 9, 60° C.): 0.2 wt %
- Number of agent incorporated (FTH ferritin [3]; pH 9, 60° C.): 2.5
- Incorporation efficiency (wt %) (FTH ferritin [3]; pH 10, 40° C.): 0.3 wt %
- Number of agent incorporated (FTH ferritin [3]; pH 10, 40° C.): 3.2
- Incorporation efficiency (wt %) (FTH ferritin [3]; pH 10, 50° C.): 0.2 wt %
- Number of agent incorporated (FTH ferritin [3]; pH 10, 50° C.): 2.6
- Incorporation efficiency (wt %) (FTH ferritin [3]; pH 10, 60° C.): 0.6 wt %
- Number of agent incorporated (FTH ferritin [3]; pH 10, 60° C.): 6.6
- Optimal pH in reaction (FTH ferritin [3]): 5

Compound: NC(N)=Nc1nc(CSCCC(N)=NS(N)(=O)=O)cs1 [Famotidine]
- pKa ([2]; single or first pKa value): 8.38
- Number of agent incorporated (FTH ferritin [3]; pH 4, 40° C.): 0.0
- Number of agent incorporated (FTH ferritin [3]; pH 6, 20° C.): 36.9
- Number of agent incorporated (FTH ferritin [3]; pH 6, 40° C.): 15.1
- Number of agent incorporated (FTH ferritin [3]; pH 6, 60° C.): 23.4
- Number of agent incorporated (FTH ferritin [3]; pH 8, 40° C.): 8.4
- Number of agent incorporated (FTH ferritin [3]; pH 10, 40° C.): 5.1
- Optimal pH in reaction (FTH ferritin [3]): 6

Compound: O=C([O-])c1ccccc1-c1c2ccc(=O)cc-2oc2cc([O-])ccc12.[Na+].[Na+] [Uranine]
- pKa ([2]; second pKa value): 4.4
- pKa ([2]; single or first pKa value): 2.2
- pKa ([2]; third printed pKa value): 6.7
- Uranine (FTH ferritin [4]; uranine in reaction 1 mM): 864.5 µM
- Uranine/FTH ferritin (FTH ferritin [4]; uranine in reaction 1 mM): 36.7
- Uranine (FTH ferritin [4]; uranine in reaction 5 mM): 1186.3 µM
- Uranine/FTH ferritin (FTH ferritin [4]; uranine in reaction 5 mM): 47.2
- Uranine (FTH ferritin [4]; uranine in reaction 10 mM): 1382.1 µM
- Uranine/FTH ferritin (FTH ferritin [4]; uranine in reaction 10 mM): 52.6
- Uranine (FTH ferritin [4]; uranine in reaction 50 mM): 1764.2 µM
- Uranine/FTH ferritin (FTH ferritin [4]; uranine in reaction 50 mM): 72.5
- Uranine (FTH ferritin [4]; uranine in reaction 100 mM): 2106.1 µM
- Uranine/FTH ferritin (FTH ferritin [4]; uranine in reaction 100 mM): 100.2
- Uranine (FTH ferritin [4]; uranine in reaction 300 mM): 2405.1 µM
- Uranine/FTH ferritin (FTH ferritin [4]; uranine in reaction 300 mM): 90.8
- amount of encapsulated uranine, one-step vs disassembly-reassembly process (FTH ferritin [5]): 2.7 fold
- Uranine (FTH ferritin [5]; 30° C., pH 3): 71.0 µM
- Uranine/FTH ferritin (FTH ferritin [5]; 30° C., pH 3): 99.2
- Uranine (FTH ferritin [5]; 30° C., pH 5): 135.6 µM
- Uranine/FTH ferritin (FTH ferritin [5]; 30° C., pH 5): 183.6
- Uranine (FTH ferritin [5]; 30° C., pH 7): 68.5 µM
- Uranine/FTH ferritin (FTH ferritin [5]; 30° C., pH 7): 90.0
- Uranine (FTH ferritin [5]; 60° C., pH 3): 198.9 µM
- Uranine/FTH ferritin (FTH ferritin [5]; 60° C., pH 3): 267.5
- Uranine (FTH ferritin [5]; 60° C., pH 5): 201.4 µM
- Uranine/FTH ferritin (FTH ferritin [5]; 60° C., pH 5): 265.3
- Uranine (FTH ferritin [5]; 60° C., pH 7): 93.4 µM
- Uranine/FTH ferritin (FTH ferritin [5]; 60° C., pH 7): 137.7
- optimum value of the reaction pH presumed from average pKa (FTH ferritin [5]; presumed from pH=2.6+0.6 pKa relation): ~5
- pKa (average) [6]: 4.4

Compound: CC(C)(C)NCC(O)c1cc(O)cc(O)c1 (stereo not drawn) [Terbutaline]
- logP [1]: 0.9
- pKa ([2]; second pKa value): 9.76
- pKa ([2]; single or first pKa value): 8.86
- Incorporation efficiency (wt %) (FTH ferritin [3]; pH 4, 40° C.): 0.0 wt %
- Number of agent incorporated (FTH ferritin [3]; pH 4, 40° C.): 0.0
- Incorporation efficiency (wt %) (FTH ferritin [3]; pH 6, 40° C.): 0.9 wt %
- Number of agent incorporated (FTH ferritin [3]; pH 6, 40° C.): 19.5
- Incorporation efficiency (wt %) (FTH ferritin [3]; pH 8, 40° C.): 0.9 wt %
- Number of agent incorporated (FTH ferritin [3]; pH 8, 40° C.): 21.0
- Incorporation efficiency (wt %) (FTH ferritin [3]; pH 10, 20° C.): 1.4 wt %
- Number of agent incorporated (FTH ferritin [3]; pH 10, 20° C.): 32.8
- Incorporation efficiency (wt %) (FTH ferritin [3]; pH 10, 40° C.): 1.2 wt %
- Number of agent incorporated (FTH ferritin [3]; pH 10, 40° C.): 27.1
- Incorporation efficiency (wt %) (FTH ferritin [3]; pH 10, 60° C.): 5.3 wt %
- Number of agent incorporated (FTH ferritin [3]; pH 10, 60° C.): 126.8
- Optimal pH in reaction (FTH ferritin [3]): 10
- pKa [6]: 9.31
